In experiment [1] the test system is mesenteric artery. The experiment can be described thus: Relaxation of mesenteric artery (KCl-contracted). The conditions noted are these: Oryctolagus cuniculus; rabbit mesenteric artery contracted with 15 to 20 mM KCl; read-out: ED50 (concentration attaining 50% of complete relaxation). How it is done:
1. Relaxation of Mesenteric Artery
A rabbit of Japanese local variety weighing about 3 kg was bled to death. Then, the abdomen of the rabbit was dissected to locate a mesenteric artery. […] Thus, shrinking and relaxation of the artery could be measured as a load on the transducer. To the organ bath, KCl was added so that the KCl concentration became 15 to 20 mM, causing the artery to shrink. Then, the compounds of the present invention were added to the organ bath to observe relaxation of the artery.
The effect of the compounds of the present invention on relaxation of mesenteric artery was examined according to the method as mentioned hereinbefore.

For experiment [2], the system named is bronchial tubes. Briefly: Inhibition of histamine contraction of bronchial tubes (relaxation of bronchial tubes). To be noted: Cavia porcellus; guinea pig bronchial tube, 10 μM histamine; Table 16; read-out: ED50 (50% decrease of histamine contraction of bronchial tubes). The procedure:
3. Inhibition of Histamine Contraction of Bronchial Tubes (Relaxation of Bronchial Tubes)
That is, a bronchial tube sample taken from a guinea pig was suspended in the 20-ml bath filled with Krebs-Henseleit nutrient solution and maintained at a temperature of 37° C. To the bath was added histamine so that the histamine concentration became 10 μM, causing the bronchial tube sample to contract. After the contraction became stable, the compounds of the present invention were added cumulatively to the bath to observe relaxation of the bronchial tube sample.
The effect of the compounds of the present invention on relaxation of bronchial tubes was examined according to the method as mentioned hereinbefore.

For `CCCCCCN(CC(C)N)S(=O)(=O)c1cccc2cnccc12` (centres unmarked) [Compound (11), N-(2-aminopropyl)-N-hexyl-5-isoquinolinesulfonamide], the EC50 in experiment [1] came out at 3 µM; in experiment [2], 9 µM.
Taken in the same sequence, the figures for `CCCCCCNCCCCCCN(CCCCCC)S(=O)(=O)c1cccc2cnccc12` [Compound (35), N-(6-hexylaminohexyl)-N-hexyl-5-isoquinolinesulfonamide] were 19 µM and 25 µM.
For `CCCCCCN(C(CCC)CCCN)S(=O)(=O)c1cccc2cnccc12` (centres unmarked) [Compound (24), N-(4-amino-1-propylbutyl)-N-hexyl-5-isoquinolinesulfonamide] the same measures were 23 µM and 17 µM.
For `NC1CCCN(S(=O)(=O)c2cccc3c(Cl)nccc23)C1` (centres unmarked) [Compound (96), 1-(1-chloro-5-isoquinolinesulfonyl)-3-aminopiperidine] the same measures were 15 µM and 12 µM.
Take `CCCCNC1CCN(S(=O)(=O)c2cccc3cnccc23)CC1` [Compound (56), 1-(5-isoquinolinesulfonyl)-4-butylaminopiperidine]: the EC50 in experiment [1] was 14 µM; in experiment [2], 10 µM.
For `CCCCCCN(CCN1CCCCC1)S(=O)(=O)c1cccc2cnccc12` [Compound (45), N-hexyl-N-(2-piperidinoethyl)-5-isoquinolinesulfonamide] the same measures were 23 µM and 17 µM.
As for `CCCN(C(C)CCCNCc1ccccc1)S(=O)(=O)c1cccc2cnccc12` (centres unmarked) [Compound (40), N-(4-benzylamino-1-methylbutyl)-N-propyl-5-isoquinolinesulfonamide], the results for the EC50 in experiment [1] and in experiment [2] were 14 µM and 22 µM, respectively.
Taken in the same sequence, the figures for `CCCCCCN(C(CN)CCCC)S(=O)(=O)c1cccc2cnccc12` (centres unmarked) [Compound (19), N-(1-aminomethylpentyl)-N-hexyl-5-isoquinolinesulfonamide] were 16 µM and 13 µM.
As to `CNC1CCCN(S(=O)(=O)c2cccc3cnccc23)C1` (centres unmarked) [Compound (64), 1-(5-isoquinolinesulfonyl)-3-methylaminopiperidine], the EC50 in experiment [1] and in experiment [2] was 6 µM throughout.
As to `NC1CCN(S(=O)(=O)c2cccc3cnccc23)CC1` [Compound (51), 1-(5-isoquinolinesulfonyl)-4-aminopiperidine], the EC50 in experiment [1] came to 15 µM; in experiment [2] it was 8 µM.
With `O=S(=O)(c1cccc2cnccc12)N(CCNCc1ccccc1)Cc1ccccc1` [Compound (30), N-(2-benzylaminoethyl)-N-benzyl-5-isoquinolinesulfonamide], the EC50 in experiment [1] and in experiment [2] was 12 µM each time.
Turning to `CC(C)N(CCN)S(=O)(=O)c1cccc2cnccc12` [Compound (2), N-(2-aminoethyl)-N-isopropyl-5-isoquinolinesulfonamide], the EC50 in experiment [1] is 4 µM; in experiment [2] it was 5 µM.
In the case of `CCCCCCN(C(C)CNC(C)C)S(=O)(=O)c1cccc2cnccc12` (centres unmarked) [(39), N-hexyl-N-(2-isopropylamino-1-methylethyl)-5-isoquinolinesulfonamide], the EC50 in experiment [1] turned out to be 11 µM; in experiment [2], 20 µM.
With `CNC1CCN(S(=O)(=O)c2cccc3cnccc23)CC1` [Compound (52), 1-(5-isoquinolinesulfonyl)-4-methylaminopiperidine], the EC50 is 14 µM in experiment [1] and 12 µM in experiment [2].
Taken in the same sequence, the figures for `CCCCN(CCNCCc1ccccc1)S(=O)(=O)c1cccc2cnccc12` [Compound (31), N-butyl-N-(2-phenylethylaminoethyl)-5-isoquinolinesulfonamide] were 10 µM and 15 µM.
Turning to `O=S(=O)(c1cccc2cnccc12)N1CCC(NCc2ccccc2)CC1` [Compound (60), 1-(5-isoquinolinesulfonyl)-4-benzylaminopiperidine], the EC50 in experiment [1] worked out at 19 µM; in experiment [2] it was 13 µM.
As for `CNC1CCN(S(=O)(=O)c2cccc3c(O)nccc23)CC1` [Compound (80), 1-(1-hydroxy-5-isoquinolinesulfonyl)-4-methylaminopiperidine], the EC50 in experiment [1] came out at 14 µM; in experiment [2], 16 µM.
For `O=S(=O)(c1cccc2cnccc12)N1CCC(Nc2ccccc2)CC1` [Compound (58), 1-(5-isoquinolinesulfonyl)-4-phenylaminopiperidine] the same measures were 20 µM and 25 µM.
Consider `CC(C)NC1CCN(S(=O)(=O)c2cccc3cnccc23)CC1` [Compound (55), 1-(5-isoquinolinesulfonyl)-4-isopropylaminopiperidine], for which the values for the EC50 in experiment [1] and in experiment [2] were 17 µM and 12 µM, respectively.
As for `O=S(=O)(c1cccc2cnccc12)N1CCC(NCCc2ccccc2)CC1` [Compound (61), 1-(5-isoquinolinesulfonyl)-4-phenethylaminopiperidine], the EC50 in experiment [1] and in experiment [2] was 15 µM in each case.
For `CC1CCN(S(=O)(=O)c2cccc3cnccc23)CC1N` (centres unmarked) [Compound (75), 1-(5-isoquinolinesulfonyl)-3-amino-4-methylpiperidine], the EC50 is 20 µM in experiment [1] and 16 µM in experiment [2].
For `CCCCCCN(C(C)CCCN)S(=O)(=O)c1cccc2cnccc12` (centres unmarked) [Compound (21), N-(4-amino-1-methylbutyl)-N-hexyl-5-isoquinolinesulfonamide] the same measures were 19 µM and 17 µM.
For `CNCCN(C)S(=O)(=O)c1cccc2cnccc12` [Compound (25), N-(2-methylaminoethyl)-N-methyl-5-isoquinolinesulfonamide] the same measures were 10 µM and 10 µM.
Turning to `NC1CCN(S(=O)(=O)c2cccc3cnccc23)C1` (centres unmarked) [Compound (78), 1-(5-isoquinolinesulfonyl)-3-aminopyrrolidine], the figures for the EC50 in experiment [1] and in experiment [2] were 12 µM and 30 µM, respectively.
As for `CNC1CCN(S(=O)(=O)c2cccc3c(Cl)nccc23)C1` (centres unmarked) [Compound (102), 1-(1-chloro-5-isoquinolinesulfonyl)-3-methylaminopyrrolidine], the results for the EC50 in experiment [1] and in experiment [2] were 16 µM and 18 µM, respectively.
For `CCCCCCN(CCCN)S(=O)(=O)c1cccc2cnccc12` [Compound (7), N-(3-aminopropyl)-N-hexyl-5-isoquinolinesulfonamide], the EC50 in experiment [1] came out at 2 µM; in experiment [2], 13 µM.
Taken in the same sequence, the figures for `CCCCCCNC(C)CN(CCCCCC)S(=O)(=O)c1cccc2cnccc12` (centres unmarked) [Compound (37), N-(2-hexylaminopropyl)-N-hexyl-5-isoquinolinesulfonamide] were 6 µM and 27 µM.
In the case of `CCCCCCN(CCNCc1ccccc1)S(=O)(=O)c1cccc2cnccc12` [Compound (32), N-(2-benzylamioethyl)-N-hexyl-5-isoquinolinesulfonamide], the figures for the EC50 in experiment [1] and in experiment [2] were 8 µM and 17 µM, respectively.
For `CCCCCCCCC(N)CN(CCC)S(=O)(=O)c1cccc2cnccc12` (centres unmarked) [Compound (14), N-(2-aminodecyl)-N-propyl-5-isoquinolinesulfonamide] the same measures were 10 µM and 22 µM.
As for `CCCCCCN(CCN1CCOCC1)S(=O)(=O)c1cccc2cnccc12` [Compound (46), N-hexyl-N-(2-morpholinoethyl)-5-isoquinolinesulfonamide], the values for the EC50 in experiment [1] and in experiment [2] were 23 µM and 25 µM, respectively.
Taken in the same sequence, the figures for `CCCCCCCCC(N)CN(CCCCCC)S(=O)(=O)c1cccc2cnccc12` (centres unmarked) [Compound (15), N-(2-aminodecyl)-N-hexyl-5-isoquinolinesulfonamide] were 7 µM and 25 µM.
On to `CCCCCCN(CCC(C)CN)S(=O)(=O)c1cccc2cnccc12` (centres unmarked) [Compound (23), N-(4-amino-3-methylbutyl)-N-hexyl-5-isoquinolinesulfonamide], for which the EC50 in experiment [1] and in experiment [2] was 18 µM throughout.
Regarding `CCNCCN(CC)S(=O)(=O)c1cccc2cnccc12` [Compound (26), N-(2-ethylaminoethyl)-N-ethyl-5-isoquniolinesulfonamide], the EC50 worked out at 11 µM in experiment [1] and 8 µM in experiment [2].
Consider `CCN(CCCCC(C)CN)S(=O)(=O)c1cccc2cnccc12` (centres unmarked) [Compound (22), N-(5-aminomethylhexyl)-N-ethyl-5-isoquinolinesulfonamide], for which the EC50 in experiment [1] turned out to be 21 µM; in experiment [2], 20 µM.
Taken in the same sequence, the figures for `CCCCCCN(CCCCCC)CCN(Cc1ccccc1)S(=O)(=O)c1cccc2cnccc12` [Compound (44), N-benzyl-N-(2-dihexylamimoethyl)-5-isoquinolinesulfonamide] were 21 µM and 29 µM.
For `CCN(CCN(C)C1CCCCC1)S(=O)(=O)c1cccc2cnccc12` [Compound (47), N-[2-(N-cyclohexyl-N-methylamino)ethyl]-N-ethyl-5-isoquinolinesulfonamide] the same measures were 22 µM and 19 µM.
Turning to `CCCCCCNC1CCCN(S(=O)(=O)c2cccc3c(Cl)nccc23)C1` (centres unmarked) [Compound (98), 1-(1-chloro-5-isoquinolinesulfonyl)-3-hexylaminopiperidine], the EC50 in experiment [1] and in experiment [2] was 13 µM in each case.

(Values after patent US4798897A, “Isoquinoline derivatives” (Asahi Kasei Kogyo Kabushiki Kaisha, priority 1987, dated 1989).)
